Data from article PMC10552397 (Cell Communication and Signaling : CCS, 2023).
Where “and” joins values, the source holds several entries; their conditions need not be identical. Identical values can stand only once.

Legend:
JUNB = assay: TPP-TR/RTSA, JUNB; type: binding, Homo sapiens; conditions: 100 nM vs DMSO, 6 h, HeLa wt
Description: TPP was performed essentially as described, but with major modifications to the TMT labeling sets and statistical data analysis for TPP-TR.
Adherent cells were washed in the dish once with DPBS and harvested by Trypsin–EDTA (0.25%, Thermo Fisher Scientific, Waltham, MA, USA, #25,200,056) treatment. […]
After temperature treatment, samples were supplemented with lysis buffer (final concentrations: 0.36 U/µL benzonase, 1.5 mM MgCl2, 1 mM Na3VO4, 10 mM NaF, 2.5 mM Na4P2O7, 0.8% w/v NP-40) for 1 h on ice. […] The total protein concentration of the resulting cell extracts containing the fraction of soluble, non-denatured proteins was determined (Pierce 660 nm Protein Assay, BSA as standard). […] The two (37 °C or 50 °C) x ten (concentrations) x three (replicates) = 60 TPP-CCR samples and two (treatment and control) x ten (temperatures) x three (replicates) = 60 TPP-TR samples were analyzed by LC–MS/MS. GRASP55 was additionally quantified from the TPP-TR samples by immunoblotting as described in the respective section.
For TPP-CCR, SP3 was performed as described with slight modifications to the original protocol using on average 5 µg total protein per sample and resulting in theoretically 5 µg peptides in 22 µL 50 mM triethylammonium bicarbonate per sample. […] This volume was calculated such that the lowest two temperature samples (36.5 °C and 41.2 °C) contained 10 µg total protein on average. […]

GRASP55 = GRASP55 (Homo sapiens, UniProt Q9H8Y8); assay: Thermal proteome profiling compound concentration range (TPP-CCR), GRASP55; type: binding; design: endogenous in cells; conditions: for GORASP2 dose response, average: average of n=1-3; for GORASP2 dose response, fit: value of fitted curve; for EC50: 3 min at 50 °C; for normalized.Reporter.intensity: single replicates n1-n3
Description: Adherent cells were washed in the dish once with DPBS and harvested by Trypsin–EDTA (0.25%, Thermo Fisher Scientific, Waltham, MA, USA, #25,200,056) treatment. After addition of 35 mL DPBS, the cells were pelleted by centrifugation (300 rcf, 5 min, 4 °C), and washed twice by re-suspending and pelleting using 45 mL and 1 mL DPBS, respectively, to remove excess trypsin and for transfer into pre-weighed 2 mL Eppendorf tubes to determine the cell pellet wet weights as quality check after centrifugation (300 rcf, 5 min, 4 °C) and complete removal of the supernatant. Cells for TPP-TR were resuspended using 1 mL, and cells for TPP-CCR were resuspended using 0.4 mL ice-cold DPBS, respectively, supplemented with protease inhibitor cocktail (Roche, Basel, Switzerland, #5,892,791,001). […] Cell suspensions were shortly centrifuged (1 s or less) using a benchtop centrifuge to release trapped air and to achieve an even liquid level without pelleting the cells. The samples were then temperature treated by a 7 min pre-incubation at RT, 3 min temperature treatment in the PCR cycler (DNA Engine Tetrad 2, lid temperature 70 °C) at different temperatures (37 °C or 50 °C for TPP-CCR or the temperatures given in Table 2 for TPP-TR) and a 3 min post-incubation at RT in a metal heating block for uniform heat dissipation.
After temperature treatment, samples were supplemented with lysis buffer (final concentrations: 0.36 U/µL benzonase, 1.5 mM MgCl2, 1 mM Na3VO4, 10 mM NaF, 2.5 mM Na4P2O7, 0.8% w/v NP-40) for 1 h on ice. The lysates were cleared from cell debris as well as denatured and precipitated proteins by centrifugation at 20,000 rcf and 4 °C for 30 min. The total protein concentration of the resulting cell extracts containing the fraction of soluble, non-denatured proteins was determined (Pierce 660 nm Protein Assay, BSA as standard). Cell extracts were shock frozen in liquid nitrogen and stored at -80 °C. The three replicates for TPP-TR and TPP-CCR were prepared on consecutive days, respectively. The two (37 °C or 50 °C) x ten (concentrations) x three (replicates) = 60 TPP-CCR samples and two (treatment and control) x ten (temperatures) x three (replicates) = 60 TPP-TR samples were analyzed by LC–MS/MS. GRASP55 was additionally quantified from the TPP-TR samples by immunoblotting as described in the respective section.
For TPP-CCR, SP3 was performed as described with slight modifications to the original protocol using on average 5 µg total protein per sample and resulting in theoretically 5 µg peptides in 22 µL 50 mM triethylammonium bicarbonate per sample. For each of the two (treatment and control) x three (replicates) = six TPP-TR temperature treatment sample sets, the same volume for each of the ten temperature samples was used for SP3 processing, thus, maintaining the information about the temperature dependent non-denatured protein content. This volume was calculated such that the lowest two temperature samples (36.5 °C and 41.2 °C) contained 10 µg total protein on average. The samples were diluted using SDS containing buffer (20 µL final, final concentrations: 7.5% glycerol, 3% SDS, 37.5 mM Tris/HCl pH 7.0) and the proteins were reduced, alkylated, and precipitated on the solid phase as described using adjusted volumes (2 × due to processing 10 µg instead of 5 µg). Volumes for washing of the aggregated proteins on the solid phase and for tryptic digestion were kept unchanged, however, to maintain the maximal total protein to trypsin/Lys-C ratio at 50:1 in the two rounds of digestion (13 h and 4 h), respectively, 2 × 0.2 µg trypsin/Lys-C was used per sample, theoretically resulting in at most about 10 µg peptides in 22 µL 50 mM triethylammonium bicarbonate. […]

## CCCCCC1=C/C(=C/c2[nH]c(-c3ccc[nH]3)cc2OC)N=C1C [Prodigiosin, prodigiosin]
JUNB
  Mean_dTm: 2.343
GRASP55; 37°C, 0.0976562 nM prodigiosin
  GORASP2 dose response, average: -0.42
  GORASP2 dose response, fit: 0.0663
GRASP55; 37°C, 0.390625 nM prodigiosin
  GORASP2 dose response, average: 0.54
  GORASP2 dose response, fit: 0.10
GRASP55; 37°C, 1.5625 nM prodigiosin
  GORASP2 dose response, average: 0.10
  GORASP2 dose response, fit: 0.16
GRASP55; 37°C, 6.25 nM prodigiosin
  GORASP2 dose response, average: 0.08
  GORASP2 dose response, fit: 0.23
GRASP55; 37°C, 25 nM prodigiosin
  GORASP2 dose response, average: 0.33
  GORASP2 dose response, fit: 0.33
GRASP55; 37°C, 100 nM prodigiosin
  GORASP2 dose response, average: 0.64
  GORASP2 dose response, fit: 0.44
GRASP55; 37°C, 400 nM prodigiosin
  GORASP2 dose response, average: 0.47
  GORASP2 dose response, fit: 0.56
GRASP55; 37°C, 1600 nM prodigiosin
  GORASP2 dose response, average: 0.85
  GORASP2 dose response, fit: 0.68
GRASP55; 37°C, 6400 nM prodigiosin
  GORASP2 dose response, average: 0.55
  GORASP2 dose response, fit: 0.77
GRASP55; 50°C, 0.0976562 nM prodigiosin
  GORASP2 dose response, average: 0.0745
  GORASP2 dose response, fit: 0.06
GRASP55; 50°C, 0.390625 nM prodigiosin
  GORASP2 dose response, average: 0.13
  GORASP2 dose response, fit: 0.17
GRASP55; 50°C, 1.5625 nM prodigiosin
  GORASP2 dose response, average: 0.40
  GORASP2 dose response, fit: 0.39
GRASP55; 50°C, 6.25 nM prodigiosin
  GORASP2 dose response, average: 0.72
  GORASP2 dose response, fit: 0.68
GRASP55; 50°C, 25 nM prodigiosin
  GORASP2 dose response, average: 0.81
  GORASP2 dose response, fit: 0.87
GRASP55; 50°C, 100 nM prodigiosin
  GORASP2 dose response, average: 0.97
  GORASP2 dose response, fit: 0.96
GRASP55; 50°C, 400 nM prodigiosin
  GORASP2 dose response, average: 0.97
  GORASP2 dose response, fit: 0.99
GRASP55; 50°C, 1600 nM prodigiosin
  GORASP2 dose response, average: 1.04
  GORASP2 dose response, fit: 1.00
GRASP55; 50°C, 6400 nM prodigiosin
  GORASP2 dose response, average: 0.85
  GORASP2 dose response, fit: 1.00
GRASP55; EC50 of GRASP55 stabilization, HeLa wt, 6 h
  EC50: 2.6 nM
GRASP55; GRASP55/GORASP2
  diff pseudoR2(50-37°C): 0.81
GRASP55; GRASP55/GORASP2, 37°C
  pseudoR2 (dose response curve fit, 37°C): 0.16
GRASP55; GRASP55/GORASP2, 37°C, 0.0976562 nM prodigiosin
  normalized.Reporter.intensity: 0.13 and -0.19 and -1.19
GRASP55; GRASP55/GORASP2, 37°C, 0.390625 nM prodigiosin
  normalized.Reporter.intensity: 0.0349 and 0.46 and 1.11
GRASP55; GRASP55/GORASP2, 37°C, 1.5625 nM prodigiosin
  normalized.Reporter.intensity: 0.45 and -0.0156 and -0.12
GRASP55; GRASP55/GORASP2, 37°C, 6.25 nM prodigiosin
  normalized.Reporter.intensity: 0.55 and 0.11 and -0.42
GRASP55; GRASP55/GORASP2, 37°C, 25 nM prodigiosin
  normalized.Reporter.intensity: 0.93 and 0.24 and -0.19
GRASP55; GRASP55/GORASP2, 37°C, 100 nM prodigiosin
  normalized.Reporter.intensity: 1.03 and 0.10 and 0.80
GRASP55; GRASP55/GORASP2, 37°C, 400 nM prodigiosin
  normalized.Reporter.intensity: 0.81 and 0.51 and 0.08
GRASP55; GRASP55/GORASP2, 37°C, 1600 nM prodigiosin
  normalized.Reporter.intensity: 1.12 and 0.54 and 0.88
GRASP55; GRASP55/GORASP2, 37°C, 6400 nM prodigiosin
  normalized.Reporter.intensity: -0.23 and 0.82 and 1.06
GRASP55; GRASP55/GORASP2, 37°C, Hill slope of fit
  H (dose response curve fit parameters, 37°C): 0.35 and 0.3479
GRASP55; GRASP55/GORASP2, 50°C
  pseudoR2 (dose response curve fit, 50°C): 0.97
GRASP55; GRASP55/GORASP2, 50°C, 0.0976562 nM prodigiosin
  normalized.Reporter.intensity: 0.0172 and 0.11 and 0.10
GRASP55; GRASP55/GORASP2, 50°C, 0.390625 nM prodigiosin
  normalized.Reporter.intensity: 0.12 and 0.19 and 0.10
GRASP55; GRASP55/GORASP2, 50°C, 1.5625 nM prodigiosin
  normalized.Reporter.intensity: 0.43 and 0.35 and 0.41
GRASP55; GRASP55/GORASP2, 50°C, 6.25 nM prodigiosin
  normalized.Reporter.intensity: 0.85 and 0.64 and 0.65
GRASP55; GRASP55/GORASP2, 50°C, 25 nM prodigiosin
  normalized.Reporter.intensity: 0.87 and 0.76 and 0.81
GRASP55; GRASP55/GORASP2, 50°C, 100 nM prodigiosin
  normalized.Reporter.intensity: 0.94 and 0.97 and 0.99
GRASP55; GRASP55/GORASP2, 50°C, 400 nM prodigiosin
  normalized.Reporter.intensity: 0.91 and 0.97 and 1.04
GRASP55; GRASP55/GORASP2, 50°C, 1600 nM prodigiosin
  normalized.Reporter.intensity: 1.02 and 1.10 and 1.01
GRASP55; GRASP55/GORASP2, 50°C, 6400 nM prodigiosin
  normalized.Reporter.intensity: 0.82 and 0.89 and 0.84
GRASP55; GRASP55/GORASP2, 50°C, Hill slope of fit
  H (dose response curve fit parameters, 50°C): 0.84 and 0.8417
GRASP55; HeLa wt, 6 h, 37 °C
  dose response of GRASP55 at 37 °C (abundance control): no dose response effects
GRASP55; pEC50 of GRASP55 stabilization, HeLa wt, 6 h
  EC50: 2.63 nM
